Biological target: p38 (Homo sapiens, UniProt Q16539)
Experiment: Protein Kinase Assay (33P incorporation from γ-[33P]ATP into GST-ATF-2)
Assay type: biochemical
Details: 2 nM p38, preincubated 20 min at 30° C.; 10 uM cold ATP, 2 uM GST-ATF2, 70 min; read-out: ACT. (Activity), IC50 category in Protein Kinase Assay
Outline: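 Compounds preincubated 20 min at 30 °C with 2 nM p38; reaction started with 2 uM GST-ATF-2 (aa 19-96) and 10 uM ATP plus γ-[33P]ATP, pH 7.5, 70 min at 30 °C, 2% DMSO. Phosphoric acid stop; 33P-labelled substrate captured on phosphocellulose and counted by scintillation.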

Chain of p38 (Q16539 whole entry): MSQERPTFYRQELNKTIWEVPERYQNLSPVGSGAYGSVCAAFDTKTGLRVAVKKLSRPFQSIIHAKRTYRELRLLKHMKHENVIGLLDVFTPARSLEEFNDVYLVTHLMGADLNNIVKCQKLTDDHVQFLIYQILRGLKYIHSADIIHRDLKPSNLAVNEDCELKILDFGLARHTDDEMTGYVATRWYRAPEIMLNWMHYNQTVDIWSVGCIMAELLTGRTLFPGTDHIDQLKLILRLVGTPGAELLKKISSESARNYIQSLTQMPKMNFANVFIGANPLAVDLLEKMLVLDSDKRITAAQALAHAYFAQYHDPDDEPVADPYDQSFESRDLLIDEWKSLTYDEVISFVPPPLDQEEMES

| IC50 [nM] | SMILES |
| --- | --- |
| < 1000 | Cc1ccc(NC(=O)Nc2sc(C(C)(C)C)cc2C(=O)N2CCN(C)C(=O)C2(C)C)cc1-c1ccc(C[N+]2([O-])CCOCC2)[n+]([O-])c1 [4-((5-(5-(3-(5-tert-butyl-3-(2,2,4-trimethyl-3-oxopiperazine-1-carbonyl)thiophen-2-yl)ureido)-2-methylphenyl)-1-oxidopyridin-2-yl)methyl)morpholine 4-oxide] |
| < 100 | Cc1ccc(NC(=O)Nc2sc(C(C)(C)C)cc2C(=O)N2CCNC(=O)C2(C)C)cc1C#C[Si](C)(C)C [1-(5-tert-butyl-3-(2,2-dimethyl-3-oxopiperazine-1-carbonyl)thiophen-2-yl)-3-(4-methyl-3-(2-(trimethylsilyl)ethynyl)phenyl)urea] |
| < 100 | Cc1nc(-c2cccc(NC(=O)Nc3sc(C(C)(C)C)cc3C(=O)N3CCNC(=O)C3(C)C)c2)cs1 [1-(5-tert-butyl-3-(2,2-dimethyl-3-oxopiperazine-1-carbonyl)thiophen-2-yl)-3-(3-(2-methylthiazol-4-yl)phenyl)urea] |
| < 100 | Cc1ccc(NC(=O)Nc2sc(C(C)(C)C)cc2C(=O)N2CCNC(=O)C2(C)C)cc1-c1ccc(N2CCN(C)CC2)nc1 [1-(5-tert-butyl-3-(2,2-dimethyl-3-oxopiperazine-1-carbonyl)thiophen-2-yl)-3-(4-methyl-3-(6-(4-methylpiperazin-1-yl)pyridin-3-yl)phenyl)urea] |
| < 100 | Cc1ccc(NC(=O)Nc2sc(C(C)(C)C)cc2C(=O)N2CCNC(=O)C2(C)C)cc1-c1ccc(C(C)C)nc1 [1-(5-tert-butyl-3-(2,2-dimethyl-3-oxopiperazine-1-carbonyl)thiophen-2-yl)-3-(3-(6-isopropylpyridin-3-yl)-4-methylphenyl)urea] |
| < 100 | Cc1ccc(NC(=O)Nc2sc(C(C)(C)C)cc2C(=O)N2CCNC(=O)C2(C)C)cc1C#CCOC1CCOCC1 [1-(5-tert-butyl-3-(2,2-dimethyl-3-oxopiperazine-1-carbonyl)thiophen-2-yl)-3-(4-methyl-3-(3-(tetrahydro-2H-pyran-4-yloxy)prop-1-ynyl)phenyl)urea] |
| < 100 | Cc1ncc(NC(=O)Nc2sc(C(C)(C)C)cc2C(=O)N2CCN(C)C(=O)C2(C)C)cc1C#CC1CC1 [1-(5-tert-butyl-3-(2,2,4-trimethyl-3-oxopiperazine-1-carbonyl)thiophen-2-yl)-3-(5-(cyclopropylethynyl)-6-methylpyridin-3-yl)urea] |
| < 100 | Cc1ccc(NC(=O)Nc2cn(C(C)(C)C)nc2C(=O)N2CCN(C)C(=O)C2(C)C)cc1-c1ccc(N2CCOCC2)cn1 [1-(1-tert-butyl-3-(2,2,4-trimethyl-3-oxopiperazine-1-carbonyl)-1H-pyrazol-4-yl)-3-(4-methyl-3-(5-morpholinopyridin-2-yl)phenyl)urea] |
| < 100 | CCNC(=O)c1ccc(-c2cc(NC(=O)Nc3cc(C(C)(C)C)sc3C(=O)N3CCN(C)C(=O)C3(C)C)ccc2C)cn1 [5-(5-(3-(5-tert-butyl-2-(2,2,4-trimethyl-3-oxopiperazine-1-carbonyl)thiophen-3-yl)ureido)-2-methylphenyl)-N-ethylpyridine-2-carboxamide] |
| < 100 | Cc1ccc(NC(=O)Nc2cn(C(C)(C)C)nc2C(=O)N2CCNC(=O)C2(C)C)cc1-c1ccc(C(C)C)nc1 [1-(1-tert-butyl-3-(2,2-dimethyl-3-oxopiperazine-1-carbonyl)-1H-pyrazol-4-yl)-3-(3-(6-isopropylpyridin-3-yl)-4-methylphenyl)urea] |
| < 100 | Cc1ccc(NC(=O)Nc2sc(C(C)(C)C)cc2C(=O)N2CCNC(=O)C2(C)C)cc1-c1ccc(OCCCc2ccccn2)nc1 [1-(5-tert-butyl-3-(2,2-dimethyl-3-oxopiperazine-1-carbonyl)thiophen-2-yl)-3-(4-methyl-3-(6-(3-(pyridin-2-yl)propoxy)pyridin-3-yl)phenyl)urea] |
| < 100 | CCNC(=O)c1ccc(-c2cc(NC(=O)Nc3sc(C(C)(C)C)cc3C(=O)N3CCNC(=O)C3(C)C)ccc2C)cn1 [5-(5-(3-(5-tert-butyl-3-(2,2-dimethyl-3-oxopiperazine-1-carbonyl)thiophen-2-yl)ureido)-2-methylphenyl)-N-ethylpyridine-2-carboxamide] |
| < 100 | COc1ccc(-c2cc(NC(=O)Nc3sc(C(C)(C)C)cc3C(=O)N3CCNC(=O)C3(C)C)cc(F)c2C)cn1 [1-(5-tert-butyl-3-(2,2-dimethyl-3-oxopiperazine-1-carbonyl)thiophen-2-yl)-3-(3-fluoro-5-(6-methoxypyridin-3-yl)-4-methylphenyl)urea] |
| < 100 | Cc1ccc(NC(=O)Nc2cc(C(C)(C)C)sc2C(=O)N2CCN(C)C(=O)C2)cc1-c1ccc(CN2CCOCC2)nc1 [1-(5-tert-butyl-2-(4-methyl-3-oxopiperazine-1-carbonyl)thiophen-3-yl)-3-(4-methyl-3-(6-(morpholinomethyl)pyridin-3-yl)phenyl)urea] |
| < 100 | Cc1ccc(NC(=O)Nc2sc(C(C)(C)C)cc2C(=O)N2CCNC(=O)C2(C)C)cc1-c1cnc(N2CCOCC2)nc1 [1-(5-tert-butyl-3-(2,2-dimethyl-3-oxopiperazine-1-carbonyl)thiophen-2-yl)-3-(4-methyl-3-(2-morpholinopyrimidin-5-yl)phenyl)urea] |
| < 100 | COc1ccc(-c2cc(NC(=O)Nc3sc(C(C)(C)C)cc3C(=O)N3CCN(C)C(=O)C3(C)C)ccc2C)cn1 [1-(5-tert-butyl-3-(2,2,4-trimethyl-3-oxopiperazine-1-carbonyl)thiophen-2-yl)-3-(3-(6-methoxypyridin-3-yl)-4-methylphenyl)urea] |
| < 1000 | CCc1ccc(-c2cc(NC(=O)Nc3sc(C(C)(C)C)cc3C(=O)N3CCN(CCN(C)C)C(=O)C3(C)C)ccc2C)cn1 [1-(5-tert-butyl-3-(4-(2-(dimethylamino)ethyl)-2,2-dimethyl-3-oxopiperazine-1-carbonyl)thiophen-2-yl)-3-(3-(6-ethylpyridin-3-yl)-4-methylphenyl)urea] |
| < 100 | CN1CCN(CCCOc2ccc(-c3cccc(NC(=O)Nc4sc(C(C)(C)C)cc4C(=O)N4CCNC(=O)C4(C)C)c3)cn2)CC1 [1-(5-tert-butyl-3-(2,2-dimethyl-3-oxopiperazine-1-carbonyl)thiophen-2-yl)-3-(3-(6-(3-(4-methylpiperazin-1-yl)propoxy)pyridin-3-yl)phenyl)urea] |
| < 100 | C#Cc1ccc(-c2cc(NC(=O)Nc3sc(C(C)(C)C)cc3C(=O)N3CCNC(=O)C3(C)C)ccc2C)cn1 [1-(5-tert-butyl-3-(2,2-dimethyl-3-oxopiperazine-1-carbonyl)thiophen-2-yl)-3-(3-(6-ethynylpyridin-3-yl)-4-methylphenyl)urea] |
| < 100 | Cc1ccc(NC(=O)Nc2sc(C(C)(C)C)cc2C(=O)N2CCNC(=O)C2(C)C)cc1-c1ccc(F)nc1 [1-(5-tert-butyl-3-(2,2-dimethyl-3-oxopiperazine-1-carbonyl)thiophen-2-yl)-3-(3-(6-fluoropyridin-3-yl)-4-methylphenyl)urea] |
| < 100 | CC(C)(C)c1cc(C(=O)N2CCNC(=O)C2(C)C)c(NC(=O)Nc2cccc(-c3ccc(OCCN4CCOCC4)nc3)c2)s1 [1-(5-tert-butyl-3-(2,2-dimethyl-3-oxopiperazine-1-carbonyl)thiophen-2-yl)-3-(3-(6-(2-morpholinoethoxy)pyridin-3-yl)phenyl)urea] |

Source: patent US20100041642A1, “UREA INHIBITORS OF MAP KINASES” (LOCUS PHARMACEUTICALS, INC., priority 2008, published 2010)
